Experimental data as given in patent US10973815B2, “Delta opioid agonist mu opioid antagonist compositions and methods for treating Parkinsons disease” (priority 2016, dated 2021).
Entries after “also recorded” stand apart in the source; their conditions may differ.

Tests used:
[1] = tested on: L-DOPA naïve MPTP-lesioned macaques; experiment: Monotherapy with Formula (i) in L-DOPA naïve MPTP-lesioned macaques; format: in vivo, Macaca fascicularis
Description: This activity is measured by an infra-red movement detector and captures all movement, normal and abnormal. MPTP-lesioned cynomolgus monkeys received acute oral administration of either vehicle or Formula (i) (1, 10 or 20 mg/kg) according to a randomized incomplete Latin Square-type. Levels of activity were assessed every minute over the entire 6 h observation. […] (FIG. 1A; time-course) or cumulated shown in FIG. 1B for 0-3 h; or FIG. 1C for 3-6 hr. N=8 for all treatment groups. */**/*** represents P<0.05, P<0.01 or P<0.001 cf. vehicle-treatment; 2-way RM ANOVA (FIG. 1A) or 1-way RM-ANOVA with Holm-Sidak's Multiple Comparison test (FIGS. 1B and C) (ns—not significant).
MPTP-lesioned cynomolgus monkeys received acute oral administration of either vehicle or Formula (i) (1, 10 or 20 mg/kg) according to a randomized incomplete Latin Square-type. Levels of bradykinesia were assessed every 10 min over the entire 6 h observation and total duration of ON-time (minutes for which bradykinesia was absent) was calculated. Data are mean±s.e.m. N=8 for all treatment groups. All P>0.05, cf vehicle-treatment; 1-way, RM-ANOVA with Holm-Sidak's Multiple Comparison test.
Parkinsonian disability is scored by a trained neurologist who is blinded to treatment allocation but is trained to differentiate normal from abnormal movements and is able to distinguish diminution of Parkinsonian disability from dyskinetic (abnormal) movements. MPTP-lesioned cynomolgus monkeys received acute oral administration of either vehicle or Formula (i) (1, 10 or 20 mg/kg) according to a randomized incomplete Latin Square-type. Levels of parkinsonian disability were assessed every 10 min over the entire 6 h observation. […] N=8 for all treatment groups. */P<0.05 cf. vehicle-treatment; 2-way RM ANOVA of ranked data (FIG. 5A) or 1-way RM-ANOVA with Holm-Sidak's Multiple Comparison test (FIGS. 5B and C).
Eight cynomolgus monkeys (Macaca fascicularis, 6.4-6.8 years of age, 2.8-4.2 kg were used in this study. Animals were housed two or three per cage in the same housing room. The housing rooms were subject to a 12 hour light-dark cycle (lights on 7 a.m.), temperature 20-25° C. in a room containing only animals of the same sex. Fresh fruit, primate pellets and water were available ad libitum other than at times of overnight fasting prior to PK or behavioral assessment days.
The animals were rendered parkinsonian via once-daily subcutaneous injection of MPTP (0.2 mg/kg), administered for between 9 and 12 days, until the appearance of parkinsonism symptoms. After this time, a parkinsonian syndrome reached a moderate to marked level, over approximately 30 days, and stabilized. […] L-DOPA naïve animals have received no L-DOPA and those showing established motor complication have received L-DOPA in an amount 25 mg/kg orally twice daily for at least 2 months. L-DOPA is given with the decarboxylase inhibitor benserazide (as Madopar™).

[2] = Oral bioavailability in macaques; parameters: species or system Macaca fascicularis; conditions: cynomolgus monkey, in vivo
Text: ON-time represents lack of bradykinesia so mere improvement in bradykinesia would not be reflected in changes in ON-time. The oral bioavailability of the drug in these animals was only 1-2% so the lack of effect on ON-time is likely due to inadequate systemic exposure levels. Higher systemic levels of the drug may have a more profound effect on bradykinesia and which could translate into changes in ON-time.

6-OHDA-lesioned rats = experiment: Rotations in unilateral 6-OHDA-lesioned rats; format: in vivo, rat
Text: N=6 rats per group, Newman-Keuls post hoc test was used for statistical significance.
N=8 per group, Newman-Keuls post hoc test for statistical significance.
In a rat model of PD, focal injection of the neurotoxin 6-hydroxydopamine (6-OHDA) was used to create a unilateral lesion of the nigrostriatal dopamine pathway. When challenged with dopamine agonists, rats rotate in the direction contralateral to the lesion and the number of rotations may be used as a measure of anti-parkinsonian efficacy.

[3] = tested on: unilateral 6-OHDA-lesioned Rats; experiment: Postural asymmetry and dyskinesia (AIMs) on repeated dosing in unilateral 6-OHDA-lesioned rats; format: in vivo, rat; conditions: 3 mg/kg p.o. daily for 15 days
[4] = 1, 10 or 20 mg/kg oral, Friedman test
[5] = any dose assessed (1, 10, 20 mg/kg oral)

Compound: CCN(CC)C(=O)c1ccc(C(c2cccc(O)c2)N2C[C@@H](C)N(Cc3cccc(F)c3)C[C@@H]2C)cc1 (stereo partly drawn) [DPI-289, 4-((alpha-R)-alpha-((2S,5R)-2,5-Dimethyl-4-(3-fluorobenzyl)-1-piperazinyl)-3-hydroxybenzyl)-N,N-diethylbenzamide]
- total duration of ON-time (mean) ([1]; 1 mg/kg oral, 6 h observation): 46 ± 48 min
- postural impairment level ([1]; 10 mg/kg oral, 1-2 h period of observation (2-3 h after treatment), P<0.01 cf. vehicle): absent-mild levels
- increase in activity counts cf. vehicle ([1]; 10 mg/kg oral, 1-2 h period of observation (2-3 h after treatment), P<0.05): 62%
- parkinsonian disability level ([1]; 10 mg/kg oral, 1-2 h period of observation (2-3 h after treatment), P<0.05 cf. vehicle (mild-moderate levels)): absent-mild levels
- total duration of ON-time (mean) ([1]; 10 mg/kg oral, 6 h observation): 49 ± 48 min
- bradykinesia level ([1]; 10 mg/kg oral, first four hours of observation (1-5 h after administration), P<0.05 cf. vehicle (moderate-marked levels)): mild-moderate levels
- increase in activity counts cf. vehicle ([1]; 20 mg/kg oral, 1-2 h period of observation (2-3 h after treatment), P<0.01): 63%
- increase in activity counts cf. vehicle ([1]; 20 mg/kg oral, 2-3 h period of observation, P<0.05): 82%
- total duration of ON-time (mean) ([1]; 20 mg/kg oral, 6 h observation): 1 ± 1 min
- dyskinesia ([1]; 1, 10 or 20 mg/kg oral, 6 h observation, listed as Formula (i)): did not evoke dyskinesia; also recorded: All zero values
- average postural impairment cumulated 0-3 h ([1]; 1, 10 or 20 mg/kg oral, Friedman P=0.031, post-hoc Dunn's all P>0.05): significant effect of Formula (i) treatment
- average bradykinesia cumulated 0-3 h ([1]; 1, 10 or 20 mg/kg oral, Friedman P=0.034, post-hoc Dunn's all P>0.05): significant effect of DPI-289 treatment
- average bradykinesia cumulated 3-6 h [1, 4]: no significant effects
- average parkinsonism cumulated over 0-3 h and 3-6 h [1, 4]: no significant effect
- average postural impairment cumulated 3-6 h [1, 4]: no significant effects
- average activity cumulated over 0-3 h and 3-6 h ([1]; 1, 10 or 20 mg/kg oral, cf. vehicle): no significant effect
- alertness [1, 5]: no increase in levels of alertness
- range of movement [1, 5]: no reduction in levels of impaired range of movement
- total duration of ON-time cf. vehicle [1, 5]: no significant increase in total duration of ON-time
- bioavailability [2]: 1 to 2%
- contralateral and ipsilateral rotations (6-OHDA-lesioned rats; 30 mg/kg): also increased rotations but the effect on contralateral rotations appeared to be diminished
- contralateral and ipsilateral rotations (6-OHDA-lesioned rats; 1-10 mg/kg i.p.): dose-related increase in both contralateral and ipsilateral rotations
- L-DOPA-induced contralateral rotations (6-OHDA-lesioned rats; co-administered with sub-optimal dose of L-DOPA (25 mg/kg i.p.)): marked potentiation of contralateral rotations
- dyskinesia (abnormal involuntary movements, AIMs) [3]: did not elicit dyskinesia
- postural asymmetry [3]: reduced or reversed the postural asymmetry
